The target of assay [1] is T1, Quinolone resistance protein NorA (Staphylococcus aureus) (UniProt P0A0J7).
T1 sequence (whole entry): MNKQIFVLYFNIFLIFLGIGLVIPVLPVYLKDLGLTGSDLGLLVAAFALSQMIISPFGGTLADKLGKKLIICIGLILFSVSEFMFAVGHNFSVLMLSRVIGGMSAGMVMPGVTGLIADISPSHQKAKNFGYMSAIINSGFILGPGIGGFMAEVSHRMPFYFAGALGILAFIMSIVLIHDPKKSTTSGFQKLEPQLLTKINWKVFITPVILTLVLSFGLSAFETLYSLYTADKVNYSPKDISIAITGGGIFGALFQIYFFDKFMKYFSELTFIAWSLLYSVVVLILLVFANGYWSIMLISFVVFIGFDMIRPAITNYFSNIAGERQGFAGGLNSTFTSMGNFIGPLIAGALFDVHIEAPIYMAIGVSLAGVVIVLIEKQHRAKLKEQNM
As to conditions: 1199B.
Description: Inhibition of Staphylococcus aureus 1199B norA efflux pump by spectrophotometry

Assay [2] deals with Staphylococcus aureus. As to the kind of experiment: microbe, parasite or virus in culture. As to conditions: 1199B, 24 h.
Description: Antimicrobial activity against Staphylococcus aureus 1199B after 24 hrs
In assay [3] the test system is Staphylococcus aureus. As to the kind of experiment: microbe, parasite or virus in culture. To be noted: Staphylococcus aureus, 1199, 24 h.
Description: Antimicrobial activity against Staphylococcus aureus 1199 after 24 hrs

The source of these data is ChEMBL document CHEMBL1240453, “Substituted dihydronaphthalenes as efflux pump inhibitors of Staphylococcus aureus” (2010).

Converted amounts (≈) assume the structure as drawn.

In turn, `COC(=O)[C@H]1[C@H]2C[C@@H]3c4[nH]c5cc(OC)ccc5c4CCN3C[C@H]2C[C@@H](OC(=O)c2cc(OC)c(OC)c(OC)c2)[C@@H]1OC` yielded an MEC in assay [1] of 25 µg/mL.
For the compound `O=C(O)c1cn(C2CC2)c2cc(N3CCNCC3)c(F)cc2c1=O` [CIPROFLOXACIN], the MIC in the assay on Staphylococcus aureus [2] stood at 8 µg/mL (≈ 24.1 µM); against Staphylococcus aureus [3], 0.25 µg/mL (≈ 0.754 µM).
